Measurements taken from PubChem BioAssay AID1845207 (Molecular Pharmacology Branch, DTP, NCI, 2023).

Tested on: NCI-H1876 tumor spheroid viability
Assay: Anticancer human tumor NCI-H1876 cell line growth inhibition;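 note: spheroids exposed to compounds for seven days before the viability read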;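 for viability, T/C: percent of DMSO vehicle control viability so 100% = vehicle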
Settings: spheroids with HUVEC and MSC; for IC50: curve of first compound; for viability, T/C: stronger effect = lower value; active = viability on the fitted dose curve at most 10% of control; inactive = the rest
Procedure, shortened: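 Complex spheroids of malignant cells with endothelial cells and mesenchymal stem cells; agents alone or combined, from near clinical Cmax (or 10 microM if unknown) down in half-log steps, 0.25% DMSO final.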

CC1COCCN1c1cc(-c2ccnn2C)c2ccnc(-c3ccn[nH]3)c2n1 (stereo not given) + CC[C@@]1(O)C(=O)OCc2c1cc1n(c2=O)Cc2cc3c(CN(C)C)c(O)ccc3nc2-1
< 31.6 nM: IC50 (second compound 0.003 µM) | IC50 (second compound 0.00949 µM) | IC50 (second compound 0.03 µM) | IC50 (second compound 0.0949 µM) | IC50 (second compound 0.3 µM)
active: viability, T/C (second compound 0.003 µM, first compound 0.1 µM) 9.61% | viability, T/C (second compound 0.003 µM, first compound 0.316 µM) 6.33% | viability, T/C (second compound 0.003 µM, first compound 1 µM) 5.32% | viability, T/C (second compound 0.003 µM, first compound 3.16 µM) 2.8% | viability, T/C (second compound 0.003 µM, first compound 10 µM) 3.12% | viability, T/C (second compound 0.00949 µM, first compound 0.0316 µM) 6.81% | viability, T/C (second compound 0.00949 µM, first compound 0.1 µM) 5.86% | viability, T/C (second compound 0.00949 µM, first compound 0.316 µM) 5.29% | viability, T/C (second compound 0.00949 µM, first compound 1 µM) 3.16% | viability, T/C (second compound 0.00949 µM, first compound 3.16 µM) 2.62% | viability, T/C (second compound 0.00949 µM, first compound 10 µM) 4.77% | viability, T/C (second compound 0.03 µM, first compound 0.0316 µM) 3.3% | viability, T/C (second compound 0.03 µM, first compound 0.1 µM) 3.5% | viability, T/C (second compound 0.03 µM, first compound 0.316 µM) 3.31% | viability, T/C (second compound 0.03 µM, first compound 1 µM) 2.97% | viability, T/C (second compound 0.03 µM, first compound 3.16 µM) 2.42% | viability, T/C (second compound 0.03 µM, first compound 10 µM) 2.82% | viability, T/C (second compound 0.0949 µM, first compound 0.0316 µM) 2.58% | viability, T/C (second compound 0.0949 µM, first compound 0.1 µM) 2.23% | viability, T/C (second compound 0.0949 µM, first compound 0.316 µM) 2.26% | viability, T/C (second compound 0.0949 µM, first compound 1 µM) 2.14% | viability, T/C (second compound 0.0949 µM, first compound 3.16 µM) 2.41% | viability, T/C (second compound 0.0949 µM, first compound 10 µM) 2.01% | viability, T/C (second compound 0.3 µM, first compound 0.0316 µM) 2.18% | viability, T/C (second compound 0.3 µM, first compound 0.1 µM) 2.1% | viability, T/C (second compound 0.3 µM, first compound 0.316 µM) 2.02% | viability, T/C (second compound 0.3 µM, first compound 1 µM) 2.7% | viability, T/C (second compound 0.3 µM, first compound 3.16 µM) 1.91% | viability, T/C (second compound 0.3 µM, first compound 10 µM) 1.92%
inactive: viability, T/C (second compound 0.003 µM, first compound 0.0316 µM) 16.2%
